“And” between values parts separate entries of the source, which are not always exact repeats. Equal values may be shown once. Where no end group is shown, it is not given here.
Tests used:
[1] = molecular target: IN/LEDGF complex (Human immunodeficiency virus type 1 group M subtype B, UniProt P04585); experiment: Dissociation of IN/LEDGF complex (AlphaScreen, immunoprecipitation); format: biochemical
Description: Dissociation of IN/LEDGF complex was measured by fluorescence resonance energy transfer (AlphaScreen® technology) and immunoprecipitation experiments: • Amplified Luminescent Proximity Homogeneous Assay (ALPHA): when the proteins (IN and LEDGF), linked to acceptor and donor beads, interact together (i.e., are into close proximity), a photosignal (a high amplified signal with output in the 520-560 nm range) is detected; when the proteins are not in close proximity, the reactive oxygen decays and there is no detectable signal generated; • immunoprecipitation (IP) was performed using polyclonal anti LEDGF antibodies (purchased from Santa Cruz Biotechnology, USA) and polyclonal HA antibodies (purchased from Eurogentec, Belgium). Cell line expression HA-tagged integrase was using for the experiment in the presence of increasing concentrations of peptide inhibitors.

[2] = in vivo; conditions: for half-life: female, BALB/c, mouse, in vivo, iv, 10 μg; for tissues with peptide accumulation: formulated with CADY-2c/CADY-1S1, after 24 hr; for time of optimal distribution: formulated with CADY-2c/CADY-1S1, intravenous; for distribution of naked peptide: intravenous, after 15 min
Description: In order to evaluate the potency of the peptides p27 (SEQ ID NO: 25) and p16 (SEQ ID NO: 19) in vivo, it was analyzed their ability to be systemically administrated by intravenous injection in mice (BALB/c; 6 to 8 week-old female mice). Peptides were either radio-labeled at the N-terminal amino acid or fluorescently labeled with Alexa® Fluo700 probe. […] Particles were injected intravenously (100 μl) and kinetic of peptide distribution were followed by fluorescence live imaging. 24 hr after injection, the level of peptides in the different tissues were quantified by fluorescence and radioactivity.

[3] = tested on: wild type HIV 1 virus; experiment: HIV propagation in Hu-PBL-SCID mice, wild type virus; format: in vivo, Hu-PBL-SCID transgenic mice; conditions: 20 mg/kg; peptides formulated with CADY-2c/CADY-1S1; HIV-1 DNA copies in splenocyte extracts
Description: (§1) The potency of the peptides p27 (SEQ ID NO: 25) and p16 (SEQ ID NO: 19) was assessed in vivo following intravenous challenge of Hu-PBL-SCID transgenic mice (in which human (hu) peripheral blood leukocytes (PBLs) from healthy Epstein-Barr virus (EBV)-seropositive donors are injected into severe combined immunodeficiency (SCID) mice; Mosier et al., 1988). The mice (6 to 8 week-old male mice, 5 animals per group) were infected with wild type HIV 1 virus or efavirenz-resistance HIV strain harbouring K103N and N341V mutations on reverse transcriptase. Infected mice were treated with peptides formulated with the peptide vector CADY-2c (see above) in water at a ratio 1/20, and then particles were coated with 3% of CADY-1S1 (see above), as described in International Application WO 2007/069090. Particles were injected intravenously (100 μl) every 2 days for 1 week, then HIV-1 copy were quantified by quantitative PCR. Efavirenz (a non-nucleoside reverse transcriptase inhibitor; EFZ) was used a positive drug control.

[4] = tested on: efavirenz-resistance HIV strain harbouring K103N and N341V mutations on reverse transcriptase; format: in vivo, Hu-PBL-SCID transgenic mice; conditions: EFZ resistance strain; 20 mg/kg/day; peptides formulated with CADY-2c/CADY-1S1
Description: as §1

[5] = tested on: HIV-1 215Y; format: cell-based; conditions: AZT-resistant
[6] = tested on: HIV-1 74V; format: cell-based; conditions: resistant to ddI and ddC

| Sequence | EC50 [1] [nM] | half-life [2] [h] | tissues with peptide accumulation [2] | time of optimal distribution [2] [h] | distribution of naked peptide [2] | HIV propagation in vivo (in words) [3] | reduction of viral propagation [4] [%] | IC50 [5] | IC50 [6] |
| --- | --- | --- | --- | --- | --- | --- | --- | --- | --- |
| GTKWLTEVWPL [Peptide P16] | 800 | < 1 | liver, brain, stomach, kidney, lung | 5 | accumulated mainly in the bladder | block HIV propagation in vivo | 58 |  |  |
| GTKWLTEWIPLTAE [Peptide P27] |  | < 1 | liver, brain, stomach, kidney, lung | 5 | accumulated mainly in the bladder | block HIV propagation in vivo | 72 | 2.7 nM and 3.9 nM | 3.8 nM and 4.9 nM |

— US20110294728A1, “Antiviral Polypeptides” (priority 2008, published 2011)
